Tests used:
[1] = molecular target: T1, IDH2R140Q (isocitrate dehydrogenase 2) (Homo sapiens, UniProt P48735, R140Q); assay: NADPH depletion end-point assay (diaphorase/resazurin), […] h preincubation, recombinant enzyme; format: biochemical
T1 construct: gene IDH2; IDH2R140Q homodimer, recombinant purified enzyme
T1 sequence (P48735 40-452 R140Q): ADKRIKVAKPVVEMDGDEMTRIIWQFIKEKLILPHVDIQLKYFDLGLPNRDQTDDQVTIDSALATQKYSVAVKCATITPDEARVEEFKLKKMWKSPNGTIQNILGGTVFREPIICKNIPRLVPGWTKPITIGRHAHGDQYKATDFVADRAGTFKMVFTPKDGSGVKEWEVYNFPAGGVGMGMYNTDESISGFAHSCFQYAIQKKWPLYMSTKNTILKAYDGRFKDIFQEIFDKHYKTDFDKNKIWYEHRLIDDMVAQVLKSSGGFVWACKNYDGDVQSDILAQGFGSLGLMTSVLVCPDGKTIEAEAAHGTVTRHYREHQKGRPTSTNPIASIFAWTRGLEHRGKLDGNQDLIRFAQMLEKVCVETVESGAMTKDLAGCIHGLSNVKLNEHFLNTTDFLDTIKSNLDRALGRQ

[2] = molecular target: T2, Idh2R140Q (mouse isocitrate dehydrogenase 2) (Mus musculus, UniProt P54071, R140Q); assay: 2HG production in culture medium of knock-in ES cells, LC-MS; format: cell-based
T2 construct: gene Idh2; Idh2R140Q knock-in mouse embryonic stem cells
T2 sequence (P54071 40-452 R140Q): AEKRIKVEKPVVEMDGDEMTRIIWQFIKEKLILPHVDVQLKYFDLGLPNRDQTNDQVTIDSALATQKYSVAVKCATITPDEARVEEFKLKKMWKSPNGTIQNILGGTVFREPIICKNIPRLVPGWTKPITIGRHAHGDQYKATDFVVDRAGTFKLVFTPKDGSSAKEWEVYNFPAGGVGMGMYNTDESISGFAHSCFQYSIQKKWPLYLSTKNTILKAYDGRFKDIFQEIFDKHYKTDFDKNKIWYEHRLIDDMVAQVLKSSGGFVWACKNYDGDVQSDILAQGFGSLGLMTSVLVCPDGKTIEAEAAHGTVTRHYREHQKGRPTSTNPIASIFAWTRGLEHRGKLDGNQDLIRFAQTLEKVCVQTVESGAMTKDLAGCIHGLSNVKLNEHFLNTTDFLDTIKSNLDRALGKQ

IC50 [1]: 4 ± 0.2 nM | IC50 [2]: 5.4 ± 2.8 nM
SMILES: CC(C)Nc1nc(Nc2ccnc(C(F)(F)F)c2)nc(-c2cccc(C(F)(F)F)n2)n1 [AGI-026]
